# Source: publication PMC4848495, “Identification of a Potent and Broad-Spectrum Hepatitis C Virus Fusion Inhibitory Peptide from the E2 Stem Domain” (Scientific Reports, 2016)
# Residues, ends and D or L forms follow the SMILES beside them.
# System: HCVcc (Jc1-luc)
# Assay: not given
# Conditions: Huh7.5.1 cells, various concentration ratios, CalcuSyn
row,Compound,effect on inhibition of HCV infection in combination with E27
1,NC(=O)c1ncn([C@@H]2O[C@H](CO)[C@@H](O)[C@H]2O)n1 [Ribavirin],slightly synergistic trend
2,COc1ccc2c(O[C@@H]3C[C@H]4C(=O)N[C@]5(C(=O)NS(=O)(=O)C6CC6)C[C@H]5/C=C\CCCCN(C)C(=O)[C@@H]4C3)cc(-c3nc(C(C)C)cs3)nc2c1C [Simeprevir],slight antagonism

# Target: HCV glycoprotein E1E2-mediated membrane fusion (Hepatitis C virus genotype 1a, UniProt P27958)
# Sequence (P27958 384-746): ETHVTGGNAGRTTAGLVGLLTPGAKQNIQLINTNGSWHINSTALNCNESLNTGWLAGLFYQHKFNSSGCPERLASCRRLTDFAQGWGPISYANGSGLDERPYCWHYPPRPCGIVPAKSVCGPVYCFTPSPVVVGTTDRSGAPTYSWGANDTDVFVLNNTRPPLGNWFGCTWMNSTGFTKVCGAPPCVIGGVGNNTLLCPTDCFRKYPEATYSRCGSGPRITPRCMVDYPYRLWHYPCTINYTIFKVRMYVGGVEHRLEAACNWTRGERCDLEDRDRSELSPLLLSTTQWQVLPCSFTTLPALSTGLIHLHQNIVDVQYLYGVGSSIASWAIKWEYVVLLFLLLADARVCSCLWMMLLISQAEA
# Sequence (P27958 192-383): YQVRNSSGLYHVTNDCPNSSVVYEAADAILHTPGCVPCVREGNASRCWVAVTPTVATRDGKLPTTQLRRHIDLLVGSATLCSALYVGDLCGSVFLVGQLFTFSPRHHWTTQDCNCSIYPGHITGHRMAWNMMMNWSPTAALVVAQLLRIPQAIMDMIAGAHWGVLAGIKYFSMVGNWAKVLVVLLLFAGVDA
# Assay: cell-based
# Assay type: cell-based, Hepatitis C virus (strain H77)
# Conditions: not given
row,Compound,EC50
1,CC[C@H](C)[C@H](NC(=O)[C@H](C)NC(=O)[C@H](Cc1c[nH]c2ccccc12)NC(=O)[C@H](CO)NC(=O)[C@H](C)NC(=O)[C@@H](NC(=O)[C@H](CO)NC(=O)[C@H](CO)NC(=O)CNC(=O)[C@@H](NC(=O)CNC(=O)[C@H](Cc1ccc(O)cc1)NC(=O)[C@H](CC(C)C)NC(=O)[C@H](Cc1ccc(O)cc1)NC(=O)[C@H](CCC(N)=O)NC(=O)[C@@H](NC(=O)[C@H](CC(=O)O)NC(=O)[C@@H](NC(=O)[C@@H](NC(=O)[C@H](CC(N)=O)NC(=O)[C@H](CCC(N)=O)NC(=O)[C@H](Cc1c[nH]cn1)NC(=O)[C@H](CC(C)C)NC(=O)[C@H](Cc1c[nH]cn1)NC(=O)[C@@H](NC(=O)[C@H](CC(C)C)NC(=O)CNC(=O)[C@@H](NC(=O)[C@H](CO)NC(=O)[C@H](CC(C)C)NC(=O)[C@H](C)NC(=O)[C@@H]1CCCN1C(=O)[C@H](CC(C)C)NC(=O)[C@@H](N)[C@@H](C)O)[C@@H](C)O)[C@@H](C)CC)[C@@H](C)CC)C(C)C)C(C)C)C(C)C)[C@@H](C)CC)C(=O)N[C@@H](CCCCN)C(=O)O [E28] (H-TLPALSTGLIHLHQNIVDVQYLYGVGSSIASWAIK-OH; N-terminus and C-terminus assumed),> 20 µM

# Same assay, conditions: Cre/stop fusion system, peptide 1 µM, luciferase divided by solvent control (0.5% DMSO)
row,Compound,% of fusion
1,"AAC NW TR GERCN LEDRDRS E LS P LLLS TTE [HCV-31, 30-mer of overlapping E1E2 peptide library]",56.9%
2,"AGLAYYSMVGNWAKVLIVMLLF AGVDGGTY [HCV-12, 30-mer of overlapping E1E2 peptide library]",122.8%
3,"CGS GP WLTP RCLVHYP YRLWHYP CTVNFTI [HCV-28, 30-mer of overlapping E1E2 peptide library]",82.2%
4,"CSNASIVYEAADMIMHTP GC VP CVRENNSS [HCV-2, 30-mer of overlapping E1E2 peptide library]",80.8%
5,"CTWMNSTGF TKTC GGP P CNIGGI GNKTLTC [HCV-25, 30-mer of overlapping E1E2 peptide library]",87.4%
6,"EYVLLLFLLLADARVCACLWMMLLIAQAEA [HCV-36, 30-mer of overlapping E1E2 peptide library]",10.7%
7,"FGVP TYSWGENE TDVLLLNNTRPP QGNWFG [HCV-23, 30-mer of overlapping E1E2 peptide library]",145.0%
8,"FKVRMYVGGVEHRLE AACNWTRGERCNLED [HCV-30, 30-mer of overlapping E1E2 peptide library]",99.6%
9,"FNSSGCPERMASCSPIDAFAQGWGPITYNE [HCV-18, 30-mer of overlapping E1E2 peptide library]",70.8%
10,"GAAALCSAMYV GDLC GSVFLVAQLF TFSP R [HCV-6, 30-mer of overlapping E1E2 peptide library]",81.5%
11,"GSVFLVAQLFTFSPRRHETVQDCNCSIYPG [HCV-7, 30-mer of overlapping E1E2 peptide library]",85.5%
12,"HTP GCVP CVRENNSSRCWVALTP TLAAR NA [HCV-3, 30-mer of overlapping E1E2 peptide library]",64.3%
13,"HVTGHRMAWDMMMNWSP TAALVVSQLLRIP [HCV-9, 30-mer of overlapping E1E2 peptide library]",56.9%
14,"IDAF AQGWGP ITYNESHSSDQRP YCWHYAP [HCV-19, 30-mer of overlapping E1E2 peptide library]",129.8%
15,"LFSP GSSQKIQLVNTNGS WHI NRTALNCND [HCV-15, 30-mer of overlapping E1E2 peptide library]",56.0%
16,"LIVMLLF AGVDGGTYVTGGTMAKNTLGI TS [HCV-13, 30-mer of overlapping E1E2 peptide library]",60.1%
17,"LYGIGS AVVSFAIKWEYVLLLFLLLADARV [HCV-35, 30-mer of overlapping E1E2 peptide library]",40.0%
18,"NGS WHINR TALNCNDSLNTGFLAALFYVHK [HCV-16, 30-mer of overlapping E1E2 peptide library]",64.2%

row,Compound,% of fusion
1,"P TDCF RKHP EATY TKC GS GP W LTP RCLV HY [HCV-27, 30-mer of overlapping E1E2 peptide library]",65.1%
2,"P YRLWHYP CTVNFTIFKVRMYVGGVEHRLE [HCV-29, 30-mer of overlapping E1E2 peptide library]",83.2%
3,"PPCNIGGI GNKTLTCP TDCFRKHP EATYTK [HCV-26, 30-mer of overlapping E1E2 peptide library]",121.6%
4,"QAVVDMVAGAHWGVLAGLAYYSMVGNWAKV [HCV-11, 30-mer of overlapping E1E2 peptide library]",121.6%
5,"RCWVALTP TLAARNASVP TTTIRRHVDLLV [HCV-4, 30-mer of overlapping E1E2 peptide library]",85.2%
6,"RDRS ELS P LLLS TTEW QV LP CS F TTLP ALS [HCV-32, 30-mer of overlapping E1E2 peptide library]",11 . 2%
7,"RHETVQDCNCSIYP GHVTGHRMAWDMMMNW [HCV-8, 30-mer of overlapping E1E2 peptide library]",76.9%
8,"RP CGIVP AAQVC GP VYCFTP SPVVVGTTDR [HCV-21, 30-mer of overlapping E1E2 peptide library]",63.7%
9,"SHSSDQRP YCWHYAP RP CGI VP AAQVC GP V [HCV-20, 30-mer of overlapping E1E2 peptide library]",65.8%
10,"SLNTGFLAALFYVHKFNSSGCPERMASCSP [HCV-17, 30-mer of overlapping E1E2 peptide library]",66.7%
11,"SP TAALVVSQLLRIP QAVVDMVAGAHWGVL [HCV-10, 30-mer of overlapping E1E2 peptide library]",78.8%
12,"SVP TTTIRRHVDLLV GAAALC SAMYVGDLC [HCV-5, 30-mer of overlapping E1E2 peptide library]",84.7%
13,"TGLIHLHQNVVDVQYLYGI GSAVVSFAIKW [HCV-34, 30-mer of overlapping E1E2 peptide library]",24.9%
14,"VTGGTM AKNTLGI TSLFSP GSSQKIQLVNT [HCV-14, 30-mer of overlapping E1E2 peptide library]",69.6%
15,"WQVLP CSFTTLP ALS TGLIHLHQNVVDVQY [HCV-33, 30-mer of overlapping E1E2 peptide library]",9.7%
16,"YCFTP SPVVVGTTDRF GVP TYSWGENETDV [HCV-22, 30-mer of overlapping E1E2 peptide library]",79.0%
17,"YEVRNVSGVYHVTNDCSNAS IVYEAADMIM [HCV-1, 30-mer of overlapping peptide library covering full-length E1E2 of HCV strain H77]",56.4%
